# “And” between values parts separate entries of the source, which are not always exact repeats. Equal entries are not always repeated.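 Results reflect a 48-hour exposure of cells in 96-well plates to compound at five concentrations. Abbreviation: GI50, concentration required for 50% inhibition of growth. TGI marks complete inhibition of growth.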 Where a SMILES comes first, the peptide text is derived from it. [ ]: non-standard residue; d: D form. Orn = NCCC[CH](N)C(=O)O
# How the values were obtained:
# Experiment in all cases: DTP human tumour cell line panel, 48 h
# HCC-2998 colon = tested on: HCC-2998 colon
# HCT-116 colon = tested on: HCT-116 colon
# K-562 leukemia = tested on: K-562 leukemia
# LOX IMVI melanoma = tested on: LOX IMVI melanoma
# MCF7 breast = tested on: MCF7 breast
# NCI-H226 lung = tested on: NCI-H226 lung
# NCI-H522 lung = tested on: NCI-H522 lung
# OVCAR-4 ovarian = tested on: OVCAR-4 ovarian
# OVCAR-5 ovarian = tested on: OVCAR-5 ovarian
# SF-295 CNS = tested on: SF-295 CNS
SMILES,GI50 (HCC-2998 colon),TGI (HCC-2998 colon),GI50 (HCT-116 colon),TGI (HCT-116 colon),GI50 (K-562 leukemia),TGI (K-562 leukemia) [µM],GI50 (LOX IMVI melanoma),TGI (LOX IMVI melanoma),GI50 (MCF7 breast),TGI (MCF7 breast),GI50 (NCI-H226 lung),TGI (NCI-H226 lung),GI50 (NCI-H522 lung),TGI (NCI-H522 lung),GI50 (OVCAR-4 ovarian),TGI (OVCAR-4 ovarian) [µM],GI50 (OVCAR-5 ovarian) [µM],TGI (OVCAR-5 ovarian),GI50 (SF-295 CNS),TGI (SF-295 CNS)
CCNCCNc1cc(C2CCCC2)c(C#N)c2nc3ccccc3n12,3.48 µM,15.3 µM,1.95 µM,3.89 µM,2.49 µM,5.81,1.76 µM,3.3 µM,2.58 µM,13.7 µM,3.49 µM,17.5 µM,2.26 µM,5.33 µM,3.22 µM,13,5.13,19.9 µM,1.7 µM,3.46 µM
CC(C)CC1NC(=O)C(CCCN)NC(=O)C(C(C)C)NC(=O)C2CCCN2C(=O)C(Cc2ccccc2)NC(=O)C(CC(C)C)NC(=O)C(CCCN)NC(=O)C(C(C)C)NC(=O)C2CCCN2C(=O)C(Cc2ccccc2)NC1=O (stereo unspecified) (cyclo(FPV[Orn]LFPV[Orn]L); configuration not given here),< 0.00325 µM,1.29 µM and 1.74 µM,0.0102 µM and 0.0167 µM,0.122 µM and 0.213 µM,< 0.00325 µM,0.0565,0.0101 µM and 0.0221 µM,0.0474 µM and 0.054 µM,0.0109 µM,0.373 µM and 0.102 µM,0.0203 µM and 0.0564 µM,1.03 µM and 1.92 µM,0.00767 µM,0.0376 µM and 0.0958 µM,0.0133 µM,,0.0117,0.968 µM and 1.98 µM,0.00644 µM and 0.0206 µM,0.0186 µM and 0.0735 µM
COc1ccc(-c2oncc2-c2cc(OC)c3c(c2)OCO3)cc1,6.36 µM,> 100 µM,3.28 µM,> 58.3 µM,0.441 µM,> 100,4.01 µM,> 60.1 µM,1.59 µM,> 100 µM,9.53 µM,> 93.8 µM,1.44 µM,5.77 µM,10 µM,> 100,5.14,> 100 µM,2.13 µM,10.3 µM
O=C(Nc1cccc2ccccc12)c1cc2ccccc2cc1O,3.5 µM,13.3 µM,2.85 µM,12 µM,1.95 µM,23.4,2.72 µM,12.2 µM,1.7 µM,7.71 µM,2.5 µM,9.42 µM,1.66 µM,4.83 µM,2.69 µM,35.9,3.32,13 µM,1.83 µM,4.32 µM
Cc1cccc2c(=O)c3c(sc12)c(NCCN)nc1ccccc13,0.798 µM,1.58 µM,0.759 µM,1.43 µM,0.827 µM,1.95,0.783 µM,1.48 µM,0.678 µM,1.42 µM,0.904 µM,2.33 µM,0.863 µM,1.75 µM,0.935 µM,2.16,0.834,1.6 µM,0.886 µM,1.7 µM
Cc1ccc(C2CC(c3cccc(Nc4ccncc4)c3)=NN2c2ccc(Cl)cc2)cc1 (stereo unspecified),1.69 µM,3.14 µM,1.84 µM,3.71 µM,1.84 µM,4.46,1.62 µM,2.97 µM,1.8 µM,3.86 µM,1.87 µM,3.76 µM,1.78 µM,3.67 µM,1.69 µM,3.35,1.61,2.99 µM,1.79 µM,3.19 µM
COc1ccc2c(c1)c(=O)oc1cc(OC/C(=N\O)c3ccc(F)cc3)ccc12,16.4 µM,33.5 µM,14.2 µM,28 µM,25.6 µM,> 100,17.8 µM,33 µM,19.8 µM,66 µM,37 µM,> 100 µM,14.9 µM,37.8 µM,18.5 µM,44.5,34.4,> 100 µM,20.2 µM,49.1 µM
O=C(CN/C=C\C(=O)c1cc(Cl)ccc1Cl)c1ccccc1,19.3 µM,47.2 µM,21.2 µM,43.1 µM,61.2 µM,> 100,19.8 µM,35.1 µM,22.7 µM,51.9 µM,25.5 µM,58.8 µM,17.4 µM,34.8 µM,49.8 µM,> 100,30.6,> 100 µM,20.4 µM,50.7 µM
Cc1cc(NC(=O)C(=O)Cc2nc3ccccc3s2)ccc1Cl,,> 100 µM,,> 100 µM,,> 100,,> 100 µM,,> 100 µM,,> 100 µM,,> 100 µM,,> 100,,> 100 µM,,> 100 µM
Cc1cc(Cl)ccc1Nc1nc(C(F)(F)F)ccc1C(=O)N/N=C/c1ccc(F)cc1,1.1 µM,4.54 µM,1.4 µM,11.1 µM,1.89 µM,6.05,1.34 µM,10.6 µM,2.64 µM,10.5 µM,2.36 µM,7.63 µM,2.4 µM,8.12 µM,0.513 µM,12.9,2.45,15.1 µM,0.71 µM,3.63 µM
C(#Cc1ccccc1C#Cc1ccccn1)c1ccc(OCCCCCCOc2ccc(C#Cc3ccccc3C#Cc3ccccn3)cc2)cc1,6.83 µM,13.3 µM,6.83 µM,15.9 µM,1.81 µM,18.5,0.229 µM,5.71 µM,1.62 µM,8.29 µM,4.33 µM,13.3 µM,2.55 µM,13.1 µM,2.7 µM,11.5,5.93,13.8 µM,1.32 µM,5.08 µM
COc1ccc(C2SC(C)C(=O)N2NC(=O)C(O)c2ccccc2)cc1 (stereo unspecified),> 100 µM,> 100 µM,> 100 µM,> 100 µM,> 100 µM,> 100,> 100 µM,> 100 µM,> 100 µM,> 100 µM,> 100 µM,> 100 µM,> 100 µM,> 100 µM,> 100 µM,> 100,> 100,> 100 µM,> 100 µM,> 100 µM
Nc1nn(C(=O)Nc2ccc(Cc3ccccc3)cc2)c2ccccc12,4.27 µM,35.9 µM,7.03 µM,> 100 µM,1.2 µM,33.8,0.477 µM,16.1 µM,0.555 µM,8.82 µM,13.5 µM,58.3 µM,2.9 µM,> 100 µM,10.7 µM,40.4,31.3,> 100 µM,0.53 µM,> 100 µM
COc1cc([C@@H]2c3cc4c(cc3[C@H](O)[C@H]3COC(=O)[C@@H]23)OCO4)cc(OC)c1OC,0.948 µM and 0.159 µM,> 6.16 µM and 0.647 µM,0.406 µM and 0.185 µM,> 10 µM,0.349 µM and 0.405 µM,> 100,0.46 µM and 0.623 µM,> 100 µM,0.321 µM and 0.0612 µM,> 100 µM,0.754 µM and 0.602 µM,> 100 µM,0.244 µM and 0.281 µM,,1.03 µM and 4.92 µM,> 100,0.721,> 100 µM,0.285 µM and 0.104 µM,1.61 µM
CCCNNC(=O)c1ccc(CNC(=O)/C=C/c2ccccc2)cc1,0.186 µM,0.653 µM,0.0547 µM,0.527 µM,0.0732 µM,> 100,0.139 µM,0.306 µM,0.216 µM,> 100 µM,0.314 µM,2.58 µM,0.226 µM,> 100 µM,0.375 µM,> 100,0.104,,0.164 µM,0.596 µM
CSc1ccc2c(c1)C(=O)c1c-2n(CCCN=[N+]=[N-])c(=O)c2cc([N+](=O)[O-])ccc12,1.57 µM,66 µM,1.69 µM,> 100 µM,1.99 µM,> 40.2,1.22 µM,> 100 µM,4.09 µM,> 100 µM,8.74 µM,> 100 µM,6.01 µM,> 100 µM,> 100 µM,> 100,> 76.6,> 100 µM,0.553 µM,> 52.1 µM
COc1cc2c3c(n(CCCN4CCOCC4)c(=O)c2cc1OC)-c1cc2c(cc1C3=O)OCO2,10.7 µM,65.4 µM,1.8 µM,17.4 µM,4.54 µM,> 100,,> 35 µM,0.368 µM,> 36.3 µM,4.6 µM,> 81.8 µM,3.97 µM,> 100 µM,51 µM,> 100,67.5,> 100 µM,0.137 µM,> 38.8 µM

# From PubChem BioAssay (NCI)
